Patent US20110275643A1, “AROYLQUINOLINE COMPOUNDS” (NATIONAL HEALTH RESEARCH INSTITUTES, priority 2010, published 2011)
Where two headings read alike, the source gives them in different places.

How the values were obtained:
[1] = test system: colorectal carcinoma HT29 cells; assay: In vitro cell growth inhibition, methylene blue dye assay, HT29 cells; type: cell-based, Human; conditions: read-out: IC50 on the proliferation of cells, HT29
Experimental: (§1) Human oral epidermoid carcinoma KB cells, non-small-cell lung carcinoma H460 cells, colorectal carcinoma HT29 cells and stomach carcinoma MKN45 cells were maintained in RMPI-1640 medium supplied with 5% fetal bovine serum (FBS). […] Cells in logarithmic phase were cultured at a density of 5000 cells/mL/well in a 24-well plate. KB-VIN10 cells were cultured in drug-free medium for 3 days prior to use. The cells were exposed to various concentrations of the test drugs for 72 hours. The methylene blue dye assay was used to evaluate the effect of the test compounds on cell growth (Finlay et al., 1984).

[2] = test system: stomach carcinoma MKN45 cells; assay: In vitro cell growth inhibition, methylene blue dye assay, MKN45 cells; type: cell-based, Human; conditions: read-out: IC50 on the proliferation of cells, MKN45
Experimental: as §1

[3] = test system: non-small-cell lung carcinoma H460 cells; assay: In vitro cell growth inhibition, methylene blue dye assay, H460 cells; type: cell-based, Human; conditions: read-out: IC50 on the proliferation of cells, H460
Experimental: as §1

[4] = test system: five cancer cell lines (KB, H460, HT29, MKN45, KB-VIN10); assay: Antiproliferative activity, mean over five cancer cell lines; type: cell-based, Human; conditions: for IC50: Homo sapiens, read-out: mean IC50 value against five cancer cell lines
Experimental: The synthesized compounds 5 to 17 were evaluated for antiproliferative activities against four carcinoma cells, oral epidermoid carcinoma KB cells, non-small-cell lung carcinoma H460 cells, colorectal carcinoma HT29 cells and stomach carcinoma MKN45 cells, as well as the MDR-positive cell lines KB-VIN10, that overexpressed P-gp 170/MDR (Table 1). The controls were compounds 1 and 3.
as §1

[5] = test system: colchicine-binding site of tubulin; assay: Tubulin competition-binding scintillation proximity assay ([3H]colchicine); conditions: for Inhibition of [3H]colchicine binding (% ± SD), 1 μM inhibitor / Inhibition of [3H]colchicine binding (% ± SD), 5 μM inhibitor: Tubulin at 1 μM, [3H]colchicine at 5 μM
Experimental: This assay was performed as described by Tahir et al., 2003. […] Then 80 μg of Streptavidin-labeled SPA (scintillation proximity assay) beads were added to each reaction mixture. Then the radioactive counts were directly measured by a scintillation counter.

[6] = test system: MAP-rich tubulin; assay: Tubulin polymerization in vitro assay (turbidimetric); type: biochemical, bovine; conditions: 37° C., 30 minutes, read-out: Inhibition of tubulin polymerization IC50 ± SD
Experimental: Turbidimetric assays (Liou et al., 2004; Kuo et al., 2004) of microtubules were performed as described by Bollag et al. 1995. In brief, microtubule-associated protein (MAP)-rich tubulin (from bovine brain, Cytoskeleton, Denver, Col.) has been dissolved in reaction buffer (100 mM PIPES (1,4-piperazinediethanesulfulfonic acid, pH 6.9), 2 mM magnesium chloride (MgCl2), 1 mM GTP (guanosine triphosphate)) in preparing of 4 mg/mL tubulin solution. Tubulin solution (240 μg MAP-rich tubulin per well) was placed in 96-well microtiter plate in the presence of test compounds or 2% (v/v) DMSO (dimethyl sulfoxide) as vehicle control. The increase in absorbance was measured at 350 nm in a PowerWave X Microplate Reader (Bio-Tek Instruments, Winooski, Vt.) at 37° C. and recorded every 30 seconds for 30 minutes.

[7] = test system: oral epidermoid carcinoma KB cells; assay: In vitro cell growth inhibition, methylene blue dye assay, KB cells; type: cell-based, Human
Experimental: as §1

[8] = test system: KB-VIN10 cells (overexpression of P-gp170/MDR); assay: In vitro cell growth inhibition, methylene blue dye assay, MDR-positive KB-VIN10 cells; type: cell-based, Human; conditions: read-out: IC50 on the proliferation of cells, KB-VIN10
Experimental: as §1

[9] = Homo sapiens, HT-29, HT29 cells, 72 hours, mean ± SD
[10] = Homo sapiens, MKN-45, MKN45 cells, 72 hours, mean ± SD
[11] = Homo sapiens, NCI-H460, H460 cells, 72 hours, mean ± SD
[12] = mean of KB, H460, HT29, MKN45, KB-VIN10
[13] = Homo sapiens, KB cells, 72 hours, mean ± SD, read-out: IC50 on the proliferation of cells, KB
[14] = Homo sapiens, KB-VIN10 cells, 72 hours, mean ± SD
[15] = Homo sapiens, KB, 72 h, read-out: IC50 on the proliferation of cells, KB

| IC50 [1, 9] [nM] | IC50 [2, 10] [nM] | IC50 [3, 11] [nM] | IC50 [4, 12] [nM] | melting point [°C] | IC50 [7, 13] [nM] | IC50 [8, 14] [nM] | SMILES | Inhibition of [3H]colchicine binding (% ± SD), 1 μM inhibitor [5] [%] | Inhibition of [3H]colchicine binding (% ± SD), 5 μM inhibitor [5] [%] | IC50 [6] [nM] | IC50 ([1]; Homo sapiens, HT-29, 72 h) [nM] | IC50 ([2]; Homo sapiens, MKN-45, 72 h) [nM] | IC50 ([3]; Homo sapiens, NCI-H460, 72 h) [nM] | IC50 [4] [nM] | IC50 [7, 15] [nM] | IC50 ([8]; Homo sapiens, KB-VIN10, 72 h) [nM] | further results |
| --- | --- | --- | --- | --- | --- | --- | --- | --- | --- | --- | --- | --- | --- | --- | --- | --- | --- |
| 24.6 ± 3 | 16.3 ± 4.5 | 36 ± 5.5 | 24.4 | 132 to 134 | 24 ± 6.1 | 21.5 ± 7.7 | COc1cc(C(=O)c2ccc3ncccc3c2)cc(OC)c1OC [Compound 9, 6-(3′,4′,5′-trimethoxybenzoyl)quinoline] | 51 ± 3 | 72 ± 3 | 2900 |  |  |  |  |  |  |  |
| 148 ± 17 | 246 ± 32.7 | 180 ± 25.5 | 173 | 158 to 159 | 174 ± 33.1 | 117 ± 23.7 | COc1cc(C(=O)c2ccc3ccccc3n2)cc(OC)c1OC [Compound 5, 2-(3′,4′,5′-trimethoxybenzoyl)quinoline] |  |  | > 10000 |  |  |  |  |  |  |  |
|  |  |  |  |  |  |  | COc1ccc(/C=C\c2cc(OC)c(OC)c(OC)c2)cc1O [Compound 1, combretastatin A-4, reference compound] | 87 ± 1 | 95 ± 2 | […] |  |  |  |  |  |  | IC50 ([1]; HT29 cells, 72 hours, mean ± SD): 835 ± 54 nM; IC50 ([2]; MKN45 cells, 72 hours, mean ± SD): 4.9 ± 0.2 nM; IC50 ([3]; H460 cells, 72 hours, mean ± SD): 2.6 ± 0.3 nM; IC50 ([7]; KB cells, 72 hours, mean ± SD, read-out: IC50 on the proliferation of cells, KB): 2.4 ± 0.2 nM; IC50 ([8]; KB-VIN10 cells, 72 hours, mean ± SD): 1.9 ± 0.4 nM |
| 206 ± 4.9 | 138 ± 54.4 | 256 ± 34.6 | 220 | 182 to 183 | 301 ± 64.4 | 202 ± 26.2 | COc1ccc2cc(C(=O)c3cc(OC)c(OC)c(OC)c3)ccc2n1 [Compound 14, 2-methoxy-6-(3′,4′,5′-trimethoxybenzoyl)quinoline] |  |  | > 10000 |  |  |  |  |  |  |  |

| SMILES | IC50 [1, 9] [nM] | IC50 [2, 10] [nM] | IC50 [3, 11] [nM] | IC50 [4, 12] [nM] | melting point [°C] | IC50 [7, 13] [nM] | IC50 [8, 14] [nM] | Inhibition of [3H]colchicine binding (% ± SD), 1 μM inhibitor [5] [%] | Inhibition of [3H]colchicine binding (% ± SD), 5 μM inhibitor [5] [%] | IC50 [6] [nM] | IC50 ([1]; Homo sapiens, HT-29, 72 h) [nM] | IC50 ([2]; Homo sapiens, MKN-45, 72 h) [nM] | IC50 ([3]; Homo sapiens, NCI-H460, 72 h) [nM] | IC50 [4] [nM] | IC50 [7, 15] [nM] | IC50 ([8]; Homo sapiens, KB-VIN10, 72 h) [nM] | further results |
| --- | --- | --- | --- | --- | --- | --- | --- | --- | --- | --- | --- | --- | --- | --- | --- | --- | --- |
| COc1cc(C(=O)c2ccc3c(N)c(OC)ccc3n2)cc(OC)c1OC [Compound 15, 5-amino-6-methoxy-2-(3′,4′,5′-trimethoxybenzoyl)quinoline] |  |  |  |  | 184.3 to 185.2 |  |  | 90 ± 0.5 | 97 ± 1 | 1600 | 0.4 ± 0.2 | 0.3 ± 0.2 | 0.4 ± 0.3 | 0.32 | 0.3 ± 0.1 | 0.2 ± 0.1 | fold improvement in the IC50 value over compound 12 ([4]; versus compound 12): > 100 fold; binding to the colchicine-binding domain in words ([5]; [3H]-colchicine binding assay): strongly bound to the colchicine-binding domain; IC50 ([7]; Homo sapiens, KB, read-out: 50% Inhibition concentration (IC50) on the proliferation of KB cells line): 0.31 nM |
| COc1ccc2nc(C(=O)c3cc(OC)c(OC)c(OC)c3)ccc2c1 [Compound 12, 6-methoxy-2-(3′,4′,5′-trimethoxybenzoyl)quinoline] |  |  |  |  | 143 to 145 |  |  | 40 ± 3 | 68 ± 2 | 3500 | 77 ± 5.7 | 150 ± 31.2 | 61.5 ± 20.5 | 67 | 27.2 ± 9.8 | 21.5 ± 0.6 |  |
